For 17 compounds, Bliss excess results are on record in the supplement of paper PMC11061612.

Assay in all cases: Bliss excess, mean over the matrix (fraction); higher = more synergy
Assay [1] relates to C-4-I (Cervical Carcinoma). In outline: (§1)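 Bliss excess equals the observed combination effect minus the expected value EA + EB − EA·EB, where EA and EB are the effects of each agent alone. Combination Emax is the second-highest inhibition within the matrix. Inhibition was scaled from CellTiter-Glo 2.0 luminescence, with 0 set by vehicle wells and 1 by blank wells, after 72 hours of two-drug dosing of cells plated in 1536-well plates.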

For assay [2], the system named is OVCAR-4 (Ovarian Carcinoma). In a few lines:
as §1

Assay [3] relates to SU8686 (Pancreatic Carcinoma). In outline: as §1
Assay [4] relates to NEC8 (Other Solid Carcinomas). In outline: as §1

Consider `CN(CCO)CC[C@H](CSc1ccccc1)Nc1ccc(S(=O)(=O)NC(=O)c2ccc(N3CCC([C@@H](O)c4ccccc4-c4ccc(Cl)cc4)CC3)cc2)cc1S(=O)(=O)C(F)(F)F` [AZD4320] + C1CN(CCC1(C(=O)N[C@@H](CCO)C2=CC=C(C=C2)Cl)N)C3=NC=NC4=C3C=CN4 [Capivasertib] (first compound max 1 µM, 7x7, partner max 3 µM), for which the Bliss excess in assay [1] was -0.0101; in assay [2], -0.0417; in assay [3] it was -0.0385; in assay [4], -0.0356.
The like results for `CN(CCO)CC[C@H](CSc1ccccc1)Nc1ccc(S(=O)(=O)NC(=O)c2ccc(N3CCC([C@@H](O)c4ccccc4-c4ccc(Cl)cc4)CC3)cc2)cc1S(=O)(=O)C(F)(F)F` [AZD4320] + C=CCn1c(=O)c2cnc(Nc3ccc(N4CCN(C)CC4)cc3)nc2n1-c1cccc(C(C)(C)O)n1 [AZD1775] (first compound max 1 µM, partner max 1 µM) were, in that order, 0.0656, -0.0068, -0.0598 and 0.0272.
For `CN(CCO)CC[C@H](CSc1ccccc1)Nc1ccc(S(=O)(=O)NC(=O)c2ccc(N3CCC([C@@H](O)c4ccccc4-c4ccc(Cl)cc4)CC3)cc2)cc1S(=O)(=O)C(F)(F)F` [AZD4320] + CCN(CCO)CCCOc1ccc2c(Nc3cc(CC(=O)Nc4cccc(F)c4)[nH]n3)ncnc2c1 [AZD2811] (first compound max 1 µM, 7x7, partner max 1 µM), the Bliss excess in assay [1] was 0.0557; in assay [2], 0.045; in assay [3] it was -0.03; in assay [4], -0.0138.
In the case of `CN(CCO)CC[C@H](CSc1ccccc1)Nc1ccc(S(=O)(=O)NC(=O)c2ccc(N3CCC([C@@H](O)c4ccccc4-c4ccc(Cl)cc4)CC3)cc2)cc1S(=O)(=O)C(F)(F)F` [AZD4320] + C[C@@H]1COCCN1C2=NC(=NC(=C2)C3(CC3)[S@](=N)(=O)C)C4=C5C=CNC5=NC=C4 [AZD6738] (first compound max 1 µM, 7x7, partner max 10 µM), the Bliss excess in assay [1] is 0.0036; in assay [2], -0.0392; in assay [3], -0.0222; in assay [4], -0.0089.
For the compound `CN(CCO)CC[C@H](CSc1ccccc1)Nc1ccc(S(=O)(=O)NC(=O)c2ccc(N3CCC([C@@H](O)c4ccccc4-c4ccc(Cl)cc4)CC3)cc2)cc1S(=O)(=O)C(F)(F)F` [AZD4320] + C[C@@H](Nc1cc(F)cc(F)c1)c1cc(C(=O)N(C)C)cc2c(=O)cc(N3CCOCC3)oc12 [AZD8186] (first compound max 1 µM, 7x7, partner max 3 µM), the Bliss excess in assay [1] is 0.0681; in assay [2], 0.0154; in assay [3], -0.0031; in assay [4] it was 0.0171.
The like results for `CN(CCO)CC[C@H](CSc1ccccc1)Nc1ccc(S(=O)(=O)NC(=O)c2ccc(N3CCC([C@@H](O)c4ccccc4-c4ccc(Cl)cc4)CC3)cc2)cc1S(=O)(=O)C(F)(F)F` [AZD4320] + Cc1cc2ncnn2cc1Nc1ncc2c(n1)n(C1CCOCC1)c(=O)n2C [AZD7648] (first compound max 1 µM, 7x7, partner max 10 µM) were, in that order, -0.0082, -0.0412, -0.0355 and 0.0104.
With `CN(CCO)CC[C@H](CSc1ccccc1)Nc1ccc(S(=O)(=O)NC(=O)c2ccc(N3CCC([C@@H](O)c4ccccc4-c4ccc(Cl)cc4)CC3)cc2)cc1S(=O)(=O)C(F)(F)F` [AZD4320] + Cn1cnc2c(F)c(Nc3ccc(Br)cc3Cl)c(C(=O)NOCCO)cc21 [Selumetinib] (first compound max 1 µM, 7x7, partner max 3 µM), the Bliss excess in assay [1] is 0.135; in assay [2], 0.0108; in assay [3] it was -0.0002; in assay [4] it was 0.021.
The matching figures for `Cc1cc2ncnn2cc1Nc1ncc2c(n1)n(C1CCOCC1)c(=O)n2C` [AZD7648] + C=CCn1c(=O)c2cnc(Nc3ccc(N4CCN(C)CC4)cc3)nc2n1-c1cccc(C(C)(C)O)n1 [AZD1775] (first compound max 10 µM, partner max 1 µM): -0.015, -0.0108, -0.0542 and 0.0004.
For `Cc1cc2ncnn2cc1Nc1ncc2c(n1)n(C1CCOCC1)c(=O)n2C` [AZD7648] + CCN(CCO)CCCOc1ccc2c(Nc3cc(CC(=O)Nc4cccc(F)c4)[nH]n3)ncnc2c1 [AZD2811] (first compound max 10 µM, 7x7, partner max 1 µM), the Bliss excess in assay [1] was 0.048; in assay [2] it was -0.0035; in assay [3], -0.0135; in assay [4], -0.0082.
In the case of `Cc1cc2ncnn2cc1Nc1ncc2c(n1)n(C1CCOCC1)c(=O)n2C` [AZD7648] + CN(C)CCCOc1ccc(-c2ccc3ncc4c(c3c2)n(C2CCOCC2)c(=O)n4C)cn1 [AZD0156] (first compound max 10 µM, 7x7, partner max 1 µM), the Bliss excess was 0.0099 in assay [1], -0.0126 in assay [2], -0.0144 in assay [3] and -0.0007 in assay [4].
Regarding `Cc1cc2ncnn2cc1Nc1ncc2c(n1)n(C1CCOCC1)c(=O)n2C` [AZD7648] + C[C@@H]1COCCN1C2=NC(=NC(=C2)C3(CC3)[S@](=N)(=O)C)C4=C5C=CNC5=NC=C4 [AZD6738] (first compound max 10 µM, 7x7, partner max 10 µM), the Bliss excess in assay [1] was 0.0255; in assay [2], -0.0053; in assay [3] it was -0.0289; in assay [4], 0.0119.
On to `Cc1cc2ncnn2cc1Nc1ncc2c(n1)n(C1CCOCC1)c(=O)n2C` [AZD7648] + O=C(c1cc(Cc2n[nH]c(=O)c3ccccc23)ccc1F)N1CCN(C(=O)C2CC2)CC1 [Olaparib] (first compound max 10 µM, 7x7, partner max 10 µM), for which the Bliss excess in assay [1] is 0.005; in assay [2], -0.0214; in assay [3], -0.0457; in assay [4], 0.0327.
On to `Cc1nc(Nc2ncc(C(=O)Nc3c(C)cccc3Cl)s2)cc(N2CCN(CCO)CC2)n1` [Dasatinib] + CC(=O)Nc1cccc(-n2c(=O)n(C3CC3)c(=O)c3c(Nc4ccc(I)cc4F)n(C)c(=O)c(C)c32)c1 [Trametinib] (first compound max 2 µM, 7x7, partner max 1 µM), for which the Bliss excess in assay [1] is 0.0328; in assay [2], 0.0286; in assay [3] it was -0.0328; in assay [4] it was -0.0277.
As to `COc1cc2ncnc(Nc3ccc(F)c(Cl)c3)c2cc1OCCCN1CCOCC1` [Gefitinib] + CC(C)n1c(=O)n(C)c2cnc3cc(F)c(-c4ccc(OCCCN5CCCCC5)nc4)cc3c21 [AZD1390] (first compound max 10 µM, 7x7, partner max 0.3 µM), the Bliss excess in assay [1] is -0.042; in assay [2] it was -0.0561; in assay [3], -0.0378; in assay [4], -0.0278.
Take `COc1cc2c(cc1OCCCCCOc1cc3c(cc1OC)C(=O)N1C=C(C)C[C@H]1C=N3)N=C[C@@H]1CC(C)=CN1C2=O` [SG3199] + O=C(c1cc(Cc2n[nH]c(=O)c3ccccc23)ccc1F)N1CCN(C(=O)C2CC2)CC1 [Olaparib] (first compound max 0.001 µM, 7x7, partner max 10 µM): the Bliss excess in assay [1] is -0.012; in assay [2] it was -0.0193; in assay [3] it was -0.0388; in assay [4] it was 0.0376.
The like results for `C[C@@H](c1ccc2nccn2c1)n1nnc2ncc(-c3cnn(C)c3)nc21` [Savolitinib] + CC1(C)CCC(CN2CCN(c3ccc(C(=O)NS(=O)(=O)c4ccc(NCC5CCOCC5)c([N+](=O)[O-])c4)c(Oc4cnc5[nH]ccc5c4)c3)CC2)=C(c2ccc(Cl)cc2)C1 [Venetoclax] (first compound max 1 µM, 7x7, partner max 1 µM) were, in that order, -0.0585, -0.0791, -0.0617 and -0.0236.
The matching figures for `C[C@@H](c1ccc2nccn2c1)n1nnc2ncc(-c3cnn(C)c3)nc21` [Savolitinib] + Cc1c2c(nn1C)CSCc1cc(n(C)n1)CSc1cc(c3ccccc3c1)OCCCc1c(C(=O)O)n(C)c3c-2c(Cl)ccc13 [AZD5991] (first compound max 1 µM, 7x7, partner max 1 µM): -0.111, -0.0713, -0.0127 and -0.0093.
